“Also recorded” adds a separate entry of the source.
Assays:
[1] = parameters: method as in PMID 36113242; details: patients with NRAS mut+ melanoma; cited from earlier work
NF1-related PN = assay: Tumor response by MRI volumetric analysis (Response Evaluation in Neurofibromatosis Schwannomatosis criteria); assay type: in vivo, human; details: for Best overall response: Complete response / Best overall response: Disease progression / Best overall response: Not evaluable / Best overall response: Partial response / Best overall response: Stable disease: Investigator assessments
Excerpt: Primary endpoints of the study were the DLT incidence rate, MTD, and RP2D. Secondary endpoints included other safety assessments, imaging tumor response (complete response [CR], PR, stable disease [SD], or progressive disease [PD]), and PK parameters of FCN-159. Adverse events were graded per CTCAE v5.0.
All patients underwent a complete medical history, physical examination, Eastern Cooperative Oncology Group (ECOG) assessment, and laboratory analysis of test results. Drug-related TEAEs, serious adverse events (SAEs), TEAEs of grade ≥ 3 toxicity, and TEAEs leading to drug discontinuation were reviewed on an ongoing basis. Efficacy was assessed by radiologic scans and clinical assessment. Tumor assessments per Response Evaluation in Neurofibromatosis Schwannomatosis criteria were performed by investigators using MRI volumetric analysis every 4 cycles within the first 2 years (± 7 days) and every 6 cycles after 2 years (± 14 days) until PD, death, patient's voluntary withdrawal from study treatment, or study termination. MRI sequences of […], T1- and T2-weighted sequences were chosen and the software of Extended Brilliance Workspace, SIGNA Premier and uExceed were used for MRI volumetric analysis. The same software was used for all tumor assessments at baseline and subsequent assessed timepoints of the same patient. Pain was assessed by an 11-point numerical rating scale (NRS-11).

[2] = system: patients with NF1-related PN with tumor pain; assay: Pain assessed by 11-point numerical rating scale (NRS-11); assay type: in vivo, human
Description: Efficacy was assessed by radiologic scans and clinical assessment.

[3] = system: patients with advanced NRAS mut+ melanoma; parameters: method as in PMID 36113242; details: cited from earlier work
[4] = Plasma pharmacokinetics of FCN-159, non-compartmental analysis; assay type: in vivo, human; details: for AUCtau / CLss/F / Cavg,ss / Cmax,ss / Cmin,ss / ARAUC0-t / ARCmax / AUC0-t / AUC0-∞ / CL/F / Cmax / T1/2 / Vd/F: Geomean; for ARAUC0-t: AUC0-t (steady state) / AUC0-t; for ARCmax: Cmax (steady state) / Cmax; for Tmax: median
Description: In order to study the PK characteristics of FCN-159 in plasma, blood samples were collected pre-dose and 0.5, 1, 2, 3, 4, 6, and 10 h post dose on days 1 and 28 of cycle 1, and pre-dose only on days 2, 8, and 15 of cycle 1 and day 1 of cycle 2. Plasma PK parameters of FCN-159 in each dose group were analyzed with standard non-compartmental PK methods using Phoenix WinNonlin, v8.2. PK parameters included area under the curve (AUC)(0-last), AUC(0-∞), maximum plasma concentration (Cmax), time to maximum plasma concentration (Tmax), half-life (T1/2), oral clearance (CL/F), and volume of distribution (Vd/F) for the single-dose regimen and AUC(0-tau), Cmax, Tmax, minimum steady-state plasma concentration (Css,min), mean steady-state plasma concentration (Css, avg), accumulation ratio for AUC (ARAUC), and apparent oral clearance at steady state (CLss/F) for the multiple dose regimen.
Data were summarized using descriptive statistics.
Dose proportionality is assessed by fitting the relationship of the ln-transformed PK parameters (Cmax, AUC) to the ln-transformed dose using a power model loge(Y)=α+βloge(Dose)+ε.

[5] = system: xenograft models (including human melanoma A375); parameters: method as in doi:10.1158/1538-7445.AM2020-1951; details: nude mouse xenograft models (including human melanoma A375); cited from earlier work

Compound: Cn1c(=O)c(F)c(Nc2ccc(I)cc2F)c2c(=O)n(C3CC3)nc(-c3cccc(NS(=O)(=O)C4CC4)c3)c21 [FCN-159]
- Mean T1/2 [1]: 32 to 57 h
- Best overall response: Complete response (NF1-related PN; 4 mg (n = 3)): 0 n (%)
- Best overall response: Disease progression (NF1-related PN; 4 mg (n = 3)): 0 n (%)
- Best overall response: Not evaluable (NF1-related PN; 4 mg (n = 3)): 0 n (%)
- Best overall response: Partial response (NF1-related PN; 4 mg (n = 3)): 1 (33.3) n (%)
- Best overall response: Stable disease (NF1-related PN; 4 mg (n = 3)): 2 (66.7) n (%)
- Best overall response: Complete response (NF1-related PN; 6 mg (n = 4)): 0 n (%)
- Best overall response: Disease progression (NF1-related PN; 6 mg (n = 4)): 0 n (%)
- Best overall response: Not evaluable (NF1-related PN; 6 mg (n = 4)): 0 n (%)
- Best overall response: Partial response (NF1-related PN; 6 mg (n = 4)): 2 (50.0) n (%)
- Best overall response: Stable disease (NF1-related PN; 6 mg (n = 4)): 2 (50.0) n (%)
- Best overall response: Complete response (NF1-related PN; 8 mg (n = 5)): 0 n (%)
- Best overall response: Disease progression (NF1-related PN; 8 mg (n = 5)): 0 n (%)
- Best overall response: Not evaluable (NF1-related PN; 8 mg (n = 5)): 0 n (%)
- Best overall response: Partial response (NF1-related PN; 8 mg (n = 5)): 2 (40.0) n (%)
- Best overall response: Stable disease (NF1-related PN; 8 mg (n = 5)): 3 (60.0) n (%)
- Best overall response: Complete response (NF1-related PN; 12 mg (n = 4)): 0 n (%)
- Best overall response: Disease progression (NF1-related PN; 12 mg (n = 4)): 0 n (%)
- Best overall response: Not evaluable (NF1-related PN; 12 mg (n = 4)): 0 n (%)
- Best overall response: Partial response (NF1-related PN; 12 mg (n = 4)): 1 (25.0) n (%)
- Best overall response: Stable disease (NF1-related PN; 12 mg (n = 4)): 3 (75.0) n (%)
- Patients with progressive disease (PD) (NF1-related PN; 16 evaluable patients): none experienced PD; also recorded: zero patients had PD
- Patients with reduced tumor volume (NF1-related PN; 16 patients with at least one post-baseline tumor assessment): 100%
- Best overall response: Complete response (NF1-related PN; Total (n = 16)): 0 n (%)
- Best overall response: Disease progression (NF1-related PN; Total (n = 16)): 0 n (%)
- Best overall response: Not evaluable (NF1-related PN; Total (n = 16)): 0 n (%)
- Best overall response: Partial response (NF1-related PN; Total (n = 16)): 6 (37.5) n (%)
- Best overall response: Stable disease (NF1-related PN; Total (n = 16)): 10 (62.5) n (%)
- Largest reduction in tumor volume (NF1-related PN; in vivo): 84.2%
- Patients achieving partial responses (NF1-related PN; six of 16 evaluable patients): 37.5%
- Patients with reduction in pain intensity of at least 2 points ([2]; NRS-11 score ≥ 2 at baseline (16/22), cycles 4 and 5, as of 9 August 2022): 72.7%
- Average decrease in pain scores ([2]; across all patients, as of 9 August 2022): 2.4 points
- Patients achieving complete pain relief at least once (score reduced to 0) ([2]; as of 9 August 2022): 13 patients
- Mean pain score reduction ([2]; dose group of 8 mg): 2.5 points
- Patients achieving meaningful pain improvement ([2]; dose group of 8 mg (15/20)): 75%
- DLTs or SAEs ([3]; 6 mg or lower, as of October 20, 2020, dose escalated from 0.2 mg to 15 mg): no DLTs or SAEs were observed
- Tolerability ([3]; first-in-human study, NRAS mut+ melanoma): well tolerated
- RP2D ([3]; phase 1a study, advanced NRAS mut+ melanoma): 12 mg
- Dose proportionality of exposure ([4]; Cmax and AUCtau at steady state 4–8 mg, PK profile between 4 and 12 mg): approximately linear; also recorded: roughly dose proportional
- Median Tmax ([4]; across all dosing regimens): 1.21 to 2.18 h
- Mean accumulation ratio of AUC ([4]; from each cohort): 1.5–2.0
- AUCtau ([4]; multiple dose, 4 mg, N 3): 392 ng·h/mL
- CLss/F ([4]; multiple dose, 4 mg, N 3): 10.2 L/h
- Cavg,ss ([4]; multiple dose, 4 mg, N 3): 16.3 ng/mL
- Cmax,ss ([4]; multiple dose, 4 mg, N 3): 45.0 ng/mL
- Cmin,ss ([4]; multiple dose, 4 mg, N 3): 8.54 ng/mL
- ARAUC0-t ([4]; multiple dose, 4 mg, N 3): 1.56
- ARCmax ([4]; multiple dose, 4 mg, N 3): 1.25
- Tmax ([4]; multiple dose, 4 mg, N 3): 1.92 h
- AUCtau ([4]; multiple dose, 6 mg, N 4): 532 ng·h/mL
- CLss/F ([4]; multiple dose, 6 mg, N 4): 11.3 L/h
- Cavg,ss ([4]; multiple dose, 6 mg, N 4): 22.2 ng/mL
- Cmax,ss ([4]; multiple dose, 6 mg, N 4): 52.2 ng/mL
- Cmin,ss ([4]; multiple dose, 6 mg, N 4): 12.2 ng/mL
- ARAUC0-t ([4]; multiple dose, 6 mg, N 4): 2.03
- ARCmax ([4]; multiple dose, 6 mg, N 4): 1.37
- Tmax ([4]; multiple dose, 6 mg, N 4): 1.24 h
- AUCtau ([4]; multiple dose, 8 mg, N 7): 723 ng·h/mL
- CLss/F ([4]; multiple dose, 8 mg, N 7): 11.1 L/h
- Cavg,ss ([4]; multiple dose, 8 mg, N 7): 30.1 ng/mL
- Cmax,ss ([4]; multiple dose, 8 mg, N 7): 82.5 ng/mL
- Cmin,ss ([4]; multiple dose, 8 mg, N 7): 15.4 ng/mL
- ARAUC0-t ([4]; multiple dose, 8 mg, N 7): 1.75
- ARCmax ([4]; multiple dose, 8 mg, N 7): 1.36
- Tmax ([4]; multiple dose, 8 mg, N 7): 1.50 h
- AUC0-t ([4]; single dose, 4 mg, N 3): 250 ng·h/mL
- AUC0-∞ ([4]; single dose, 4 mg, N 3): 370 ng·h/mL
- CL/F ([4]; single dose, 4 mg, N 3): 10.8 L/h
- Cmax ([4]; single dose, 4 mg, N 3): 36.0 ng/mL
- T1/2 ([4]; single dose, 4 mg, N 3): 16.2 h
- Vd/F ([4]; single dose, 4 mg, N 3): 253 L
- Tmax ([4]; single dose, 4 mg, N 3): 1.43 h
- AUC0-t ([4]; single dose, 6 mg, N 4): 262 ng·h/mL
- AUC0-∞ ([4]; single dose, 6 mg, N 4): 388 ng·h/mL
- CL/F ([4]; single dose, 6 mg, N 4): 15.4 L/h
- Cmax ([4]; single dose, 6 mg, N 4): 38.1 ng/mL
- T1/2 ([4]; single dose, 6 mg, N 4): 11.4 h
- Vd/F ([4]; single dose, 6 mg, N 4): 254 L
- Tmax ([4]; single dose, 6 mg, N 4): 1.48 h
- AUC0-t ([4]; single dose, 8 mg, N 8): 453 ng·h/mL
- AUC0-∞ ([4]; single dose, 8 mg, N 8): 661 ng·h/mL
- CL/F ([4]; single dose, 8 mg, N 8): 12.1 L/h
- Cmax ([4]; single dose, 8 mg, N 8): 64.2 ng/mL
- T1/2 ([4]; single dose, 8 mg, N 8): 15.4 h
- Vd/F ([4]; single dose, 8 mg, N 8): 269 L
- Tmax ([4]; single dose, 8 mg, N 8): 1.21 h
- AUC0-t ([4]; single dose, 12 mg, N 4): 1050 ng·h/mL
- AUC0-∞ ([4]; single dose, 12 mg, N 4): 1330 ng·h/mL
- CL/F ([4]; single dose, 12 mg, N 4): 9.03 L/h
- Cmax ([4]; single dose, 12 mg, N 4): 147 ng/mL
- T1/2 ([4]; single dose, 12 mg, N 4): 11.7 h
- Vd/F ([4]; single dose, 12 mg, N 4): 153 L
- Tmax ([4]; single dose, 12 mg, N 4): 2.18 h
- Tumor growth [5]: Anti-tumor activity was observed
